From patent US5808049A, “Stereospecific 5-fu esters and methods for preparing same” (Director-General of Agency of Industrial Science and …, priority 1994, dated 1998)

Tests used:
[1] = in vitro; details: rat, anr4 cells, pH 7.5
Experimental: (§1) Each of the reaction mixtures was prepared by dissolving 1 mg of the ester in 10 μl of ethanol, and by mixing with it, 90 μl of a 0.1M phosphoric acid buffer (having a pH of 7.5), plus one of the following: 100 μl of a cell suspension, or 20 or 30 μl of whole blood, or 50 μl of tissue homogenate. […] The cells numbers in 100 μl of the cell suspension used in the reaction were as follows: rat liver cancer cells Anr4=7×10^6 ; rat pancreas cancer cells ARIP=8×10^6 ; rat sarcoma cells XC=5×10^6 ; human histiocytic leukemia cells U937=1×10^7 ; human pancreas cancer cells MIA PaCa-2=8×10^6 ; and human intestinum crassum cancer cells Colo 320=1×10^7. Fifty μl of the tissue homogenate corresponded to 20 mg of wet tissue.
(§2) Each of these reaction mixtures was stirred for 12 hours at 30° C. by a magnetic stirrer; then 1.5 μl of 2N HCl was added, to bring the pH to about 2.5, and extraction with 1 ml of ethyl acetate in the presence of a saturated sodium chloride was carried out twice. The ethyl acetate layers of each sample were combined, the volume was adjusted to precisely 2 ml, and it was divided into 1.7 ml and 0.3 ml. The former was concentrated under reduced pressure, and the contained produced carboxylic acid was isolated by thin-layer preparative chromatography. A solution of diazomethane in ether was added to it, to methylate it, and the absolute configuration and the optical purity of the methylated product were determined by high-performance liquid chromatography using a chiral column. The latter 0.3 ml was directly methylated, and then it was concentrated and adjusted to 0.3 ml again, and the methyl ester of the contained produced carboxylic acid was determined quantitatively by gas chromatography, from which the hydrolyzed rate was determined. The column used in the high-performance liquid chromatography was a Chiralcell OJ or OD column (trade name; 4.6×250 mm) manufactured by Daicel; the elution was carried out by using a 10% 2-propanol/hexane mixture; and the flow velocity was 1 or 0.75 ml/min. The column used in the gas chromatography was a capillary column of OV-1 (0.25 mm×25 m), and the analysis temperature was 120° to 180° C.

[2] = in vitro; details: rat, arip cells, pH 7.5
Experimental: as §1, §2

[3] = in vitro; details: rat, xc cells, pH 7.5
Experimental: as §1, §2

[4] = in vitro; details: human, u937 cells, pH 7.5
Experimental: as §1, §2

[5] = in vitro; details: human, mia paca-2 cells, pH 7.5
Experimental: as §1, §2

[6] = in vitro; details: human, colo 320 cells, pH 7.5
Experimental: as §1, §2

[7] = in vitro; details: rat, blood, pH 7.5
Experimental: as §1, §2

[8] = in vitro; details: human, blood, pH 7.5
Experimental: as §1, §2

[9] = Stereoselective hydrolysis of anticancer agent esters with rat whole blood; details: pH 7.5; for enantiomer excess of the carboxylic acid produced by the hydrolysis: rat whole blood, 12 hours at 30° C.; for metabolised at 12 h: rat, whole blood
Experimental: as §1, §2

[10] = Stereoselective hydrolysis of anticancer agent esters with human whole blood; details: pH 7.5; for enantiomer excess of the carboxylic acid produced by the hydrolysis: human whole blood, 12 hours at 30° C.; for metabolised at 12 h: human, whole blood
Experimental: as §1, §2

[11] = test system: rat sarcoma cells XC; test: Stereoselective hydrolysis of anticancer agent esters with rat sarcoma cells XC; details: XC; 12 hours at 30° C., pH 7.5
Experimental: as §1, §2

[12] = test system: rat liver cancer cells Anr4; test: Stereoselective hydrolysis of anticancer agent esters with rat liver cancer cells Anr4; details: Anr4; 12 hours at 30° C., pH 7.5
Experimental: as §1, §2

[13] = Stereoselective hydrolysis of anticancer agent esters with normal rat liver homogenate; details: 12 hours at 30° C., pH 7.5
[14] = Stereoselective hydrolysis of anticancer agent esters with normal rat muscle homogenate; details: 12 hours at 30° C., pH 7.5
[15] = test system: rat pancreas cancer cells ARIP; test: Stereoselective hydrolysis of anticancer agent esters with rat pancreas cancer cells ARIP; details: ARIP; 12 hours at 30° C., pH 7.5
Experimental: as §1, §2

[16] = Stereoselective hydrolysis of anticancer agent esters with normal rat pancreas homogenate; details: 12 hours at 30° C., pH 7.5
Experimental: as §1, §2

[17] = test system: human histiocytic leukemia cells U937; test: Stereoselective hydrolysis of anticancer agent esters with human histiocytic leukemia cells U937; details: U937; 12 hours at 30° C., pH 7.5
Experimental: as §1, §2

[18] = test system: human pancreas cancer cells MIA PaCa-2; test: Stereoselective hydrolysis of anticancer agent esters with human pancreas cancer cells MIA PaCa-2; details: MIA PaCa-2; 12 hours at 30° C., pH 7.5
Experimental: as §1, §2

[19] = test system: human intestinum crassum cancer cells Colo 320; test: Stereoselective hydrolysis of anticancer agent esters with human intestinum crassum cancer cells Colo 320; details: Colo320; 12 hours at 30° C., pH 7.5
Experimental: as §1, §2

[20] = Stereoselective hydrolysis of anticancer agent esters with rat sarcoma cells XC; details: rat, xc cells, pH 7.5
Experimental: as §1, §2

[21] = Stereoselective hydrolysis of anticancer agent esters with rat liver cancer cells Anr4; details: rat, anr4 cells, pH 7.5
Experimental: as §1, §2

[22] = Stereoselective hydrolysis of anticancer agent esters with rat pancreas cancer cells ARIP; details: rat, arip cells, pH 7.5
Experimental: as §1, §2

[23] = Stereoselective hydrolysis of anticancer agent esters with human histiocytic leukemia cells U937; details: human, u937 cells, pH 7.5
Experimental: as §1, §2

[24] = Stereoselective hydrolysis of anticancer agent esters with human pancreas cancer cells MIA PaCa-2; details: human, mia paca-2 cells, pH 7.5
Experimental: as §1, §2

[25] = Stereoselective hydrolysis of anticancer agent esters with human intestinum crassum cancer cells Colo 320; details: human, colo 320 cells, pH 7.5
Experimental: as §1, §2

SMILES | metabolised at 12 h [1] [%] | metabolised at 12 h [2] [%] | metabolised at 12 h [3] [%] | metabolised at 12 h [4] [%] | metabolised at 12 h [5] [%] | metabolised at 12 h [6] [%] | metabolised at 12 h [7] [%] | metabolised at 12 h [8] [%] | enantiomer excess of the carboxylic acid produced by the hydrolysis [9] [% e.e.] | enantiomer excess of the carboxylic acid produced by the hydrolysis [10] [% e.e.] | enantiomer excess of the carboxylic acid produced by the hydrolysis [11] [% e.e.] | enantiomer excess of the carboxylic acid produced by the hydrolysis [12] [% e.e.] | enantiomer excess of the carboxylic acid produced by the hydrolysis [13] [% e.e.] | enantiomer excess of the carboxylic acid produced by the hydrolysis [14] [% e.e.] | enantiomer excess of the carboxylic acid produced by the hydrolysis [15] [% e.e.] | enantiomer excess of the carboxylic acid produced by the hydrolysis [16] [% e.e.] | enantiomer excess of the carboxylic acid produced by the hydrolysis [17] [% e.e.] | enantiomer excess of the carboxylic acid produced by the hydrolysis [18] [% e.e.] | enantiomer excess of the carboxylic acid produced by the hydrolysis [19] [% e.e.] | metabolised at 12 h [9] [%] | further results
O=C(Oc1ccc(N(CCCl)CCCl)cc1)C(Cc1ccccc1)NC(=O)C(F)(F)F (racemic) [Ic, (±)-4-bis(2-chloroethyl)aminophenyl 2-trifluoroacetamido-3-phenylpropionate] | 0.6 | 14.6 | 10.6 | 9.6 | 7.2 | 2.4 | 18.2 | 8 | 18.3 | 23.7 | 77.9 | 94.9 | 93.2 | 72.4 | 83.0 | > 99 | > 99 | 2.6 | 35.9 | – | –
CC(C(=O)Oc1ccc(N(CCCl)CCCl)cc1)c1ccccc1 (racemic) [Ia, (±)-4-bis(2-chloroethyl)aminophenyl 2-phenylpropionate] | 20.9 | 10.2 | 6.3 | 5.2 | 6 | 3 | 5.8 | 2.4 | 9.4 | 9.1 | 18.6 | 68.9 | 15.7 | 1.8 | 42.8 | 1.0 | 72.3 | 87.1 | 68.9 | – | –
CC(C(=O)OC[C@H]1O[C@@H](n2cc(F)c(=O)[nH]c2=O)[C@H](O)[C@@H]1O)c1ccccc1 (stereo partly drawn) [IIa, 5'-(RS)-(2-phenylpropionyl)-5-fluorouridine] | – | – | – | – | – | – | – | – | 53.7 | 12.5 | 82.1 | 81.6 | 85.6 | 61.7 | 91.3 | 36.9 | 38.2 | – | – | 6.3 | metabolised at 12 h [10]: 5.3%; metabolised at 12 h [20]: 16.8%; metabolised at 12 h [21]: 26.3%; metabolised at 12 h [22]: 25.2%
O=C(OC[C@H]1O[C@@H](n2cc(F)c(=O)[nH]c2=O)[C@H](O)[C@@H]1O)C(Cc1ccccc1)NC(=O)C(F)(F)F (stereo partly drawn) [IIc, 5'-(RS)-(2-trifluoroacetamido-3-phenylpropionyl)-5-fluorouridine] | – | – | – | – | – | – | – | – | 41.8 | 66.9 | > 99 | 98.4 | > 99 | 87.8 | > 99 | > 99 | 57.8 | 19.0 | 64.6 | 16.3 | metabolised at 12 h [10]: 36.1%; metabolised at 12 h [20]: 3.4%; metabolised at 12 h [21]: 7.8%; metabolised at 12 h [22]: 1.9%; metabolised at 12 h [23]: 12.6%; metabolised at 12 h [24]: 20.6%; metabolised at 12 h [25]: 13.8%
